# Measurements from patent publication US9872851B2, “Methods of treating portal hypertension” (The Charlotte-Mecklenburg Hospital Authority, priority 2012, dated 2018).
# Key:
# Rev-erbα = assay: Western blot of Rev-erbα in HSCs treated with pro- and anti-fibrogenic factors; format: cell-based, rat
# Procedure: FIGS. 2A-B illustrate the regulation of Rev-erbα expression by pro- and anti-fibrogenic factors. […] Cells were harvested for protein and Western blots performed to detect Rev-erbα.
# (§1) Primary rat HSCs were isolated by pronase/collagenase perfusion digestion followed by density gradient centrifugation with Optiprep. Media was replaced every other day to replenish Rev-erb modulator SR6452, which was present at a 10 μM concentration. Cells were treated with MDIR mixture (IBMX, dexamethasone, insulin, rosiglitazone), TGFβ, or DMSO (vehicle). Some experiments were performed with the human HSC cell line, LX-2.
# FIG. 2B show results from primary HSCs that were treated with pro-fibrogenic factor TGFβ (5 ng/ml) or myosin inhibitors blebbistatin (Bleb) or BDM (2,3-Butanedione monoxime) for 48 hrs. Cells were harvested for protein and Western blots performed to detect Rev-erbα.
# primary rat HSCs [1] = assay: qRT-PCR gene expression in culture-activated primary rat HSCs; format: cell-based
# Procedure: (§2) A series of experiments were conducted to determine the functional role of Rev-erbα in HSC transdifferentiation. In these experiments, culture-activated primary rat HSCs and human LX-2 cells were used. To determine the effect of Rev-erbα on HSC transdifferentiation and contraction, cells were treated with a specific synthetic modulator, SR6452 (10 μM). mRNA and protein expression were determined by qRT-PCR and Western blot, respectively. Changes in cellular morphology, Rev-erbα expression/localization and αSMA expression were observed by confocal microscopy. Additionally, cell contractility was assessed.
# as §1
# mRNA expression was normalized to 18S rRNA.
# (§3) FIGS. 3A-B illustrates that modulation of Rev-erbα activity can regulate adipogenesis. Primary HSCs were culture-activated for 5 days (A) or 15 days (B). Cells were treated with vehicle (DMSO, open bar), or the Rev-erb modulator SR6452 (10 mM, purple bar) for the days indicated. The medium was changed every 48 hrs. FIG. 3A provides a chart summarizing the amount of PPARγ, SREBP1, and Lep mRNA on day 5.
# FIGS. 4A-B illustrate that the Rev-erb modulator SR6452 can suppress/decrease ECM gene expression. Primary rat HSCs were cultured from quiescence (day Q) to day 5 (FIG. 4A) or from day 9 to day 12 (FIG. 4B) and treated with Rev-erb modulator SR6452. qRT-PCR was performed to determine ECM gene expression. DMSO was used as the vehicle control, while SR6452 was used as the Rev-erb modulator.
# (§4) FIGS. 5A-D illustrate that Rev-erb modulator SR6452 can regulate myofibroblast marker expression and HSC contraction. Primary rat HSCs were cultured from quiescence (day Q) to day 5 (FIG. 5A) or from day 9 to day 12 (FIG. 5B) and treated with Rev-erb modulator SR6452. qRT-PCR was performed for myofibroblast gene expression. Samples were normalized with 18S rRNA. […] HSCs (day 5) were embedded in a collagen gel and treated as indicated for 48 hrs. Gels were then released from plastic surface and contraction monitored after 72 hrs. Materials used were DMSO (vehicle control), SR6452, Rev-erb modulator; and BDM (2,3-Butanedione monoxime), myosin inhibitor.
# primary HSCs [2] = assay: Oil Red O staining / adipogenesis of HSCs; format: cell-based, rat
# Procedure: FIGS. 3A-B illustrate how modulation of Rev-erbα activity can regulate adipogenesis. Primary HSCs were culture-activated for 5 days (A) or 15 days (B). Cells were treated with vehicle, DMSO (open bar), or Rev-erb agonist SR6452 ([…], solid bar). FIG. 3A provides a graph summarizing the amount of PPARγ, SREBP1, and Lep mRNA detected after 5 days of culture.
# as §1, §3
# primary HSCs [3] = assay: Immunocytochemistry (αSMA, DAPI) and cellular morphology by confocal microscopy; format: cell-based, rat; conditions: HSCs (day 9) treated 72 hrs
# Procedure: as §2
# Prior to transfection, culture-activated HSCs (for varying days of activation) were seeded onto glass coverslips. Cells were fixed with 4% paraformaldehyde and stained with anti-αSMA antibody, a marker of HSC activation. Cells were imaged using a Zeiss confocal microscope. The fluorescence indicates Rev-erbα or αSMA expression.
# FIGS. 5A-D illustrate that Rev-erb modulator SR6452 can regulate myofibroblast marker expression and HSC contraction. Primary rat HSCs were cultured from quiescence (day Q) to day 5 (FIG. 5A) or from day 9 to day 12 (FIG. 5B) and treated with Rev-erb modulator SR6452. qRT-PCR was performed for myofibroblast gene expression. Samples were normalized with 18S rRNA. […] Gels were then released from plastic surface and contraction monitored after 72 hrs. […]
# primary rat HSCs [4] = assay: Cell contraction assay (collagen lattice); format: cell-based; conditions: collagen gel, SR6452
# Procedure: Primary rat HSCs (day 9, 2-5×10^6 cells/ml) were embedded in a collagen lattice per manufacturer's instructions. Cells were treated with synthetic Rev-erbα ligand SR6452. Collagen gel size change was imaged using a BioSpectrum Imaging System.
# as §4
# cirrhotic rats = assay: Hemodynamic measurements in bile duct-ligated (BDL) rats; format: in vivo, rat; conditions: 10 μM/kg femoral vein, one hour
# Procedure: Studies were performed to determine the in vivo efficacy of using SR6452 as a treatment for portal hypertension. Rats underwent bile duct-ligation (˜5 weeks, until ascites developed) to induce fibrosis and thus portal hypertension. Initial hemodynamic measurements were taken prior to addition of the agonist. SR6452 (10 μM/kg body weight) was administered via the femoral vein and measurements taken again one hour after administration. Experiments were performed 5 weeks after male Sprague-Dawley rats underwent bile duct-ligation (BDL), when cirrhosis was fully established and ascites present. SR6452 (10 μM/kg body weight) was administered via the femoral vein and hemodynamic measurements taken one hour after administration. Hemodynamic studies were performed as previously described (J Hepatol 2012 57:1220-1227). Briefly, a laparotomy was performed under anesthesia. A PE-50 catheter was introduced into a small ileocolic vein and advanced to the portal vein for measurement of portal pressure. The left femoral artery and vein were cannulated with PE-50 catheters for measurement of mean arterial pressure, central venous pressure and blood withdrawal. Via the right carotid artery, another PE-50 catheter was advanced into the left ventricle under pulse curve control, for microsphere application. After insertion of all catheters, rats were allowed to stabilize hemodynamically for 30 min. Cardiac output and organ perfusions were measured using the colored microsphere method as described (J Hepatol 2012 57:1220-1227). Briefly, 300,000 systemic (yellow) microspheres (15 μm diameter) were injected in the left ventricle. The mesenteric portal-systemic shunt volume was estimated after injection of 150,000 blue microspheres in an ileocolic vein.
# [5] = SR6452 10 μM, day Q to day 5 or day 9 to day 12
Molecule,"cytoplasmic Rev-erbα (Rev-erbα; TGFβ 5 ng/ml, 48 hrs)",Rev-erbα protein expression (Rev-erbα; Western blot),effects on major regulatory and structural genes controlling myofibroblast contraction (primary rat HSCs [1]; [5]),"expression of key extracellular matrix components, including Type I collagen, fibronectin, and tenascin C (primary rat HSCs [1]; [5])","expression of major adipogenic factors, notably PPARγ and SREBP1 (primary rat HSCs [1]; SR6452 10 μM, mRNA, day 5)",effect on HSC activation (primary rat HSCs [1]; overall conclusion of the in vitro data),"lipid content in activated HSCs (primary HSCs [2]; SR6452 10 μM, primary HSCs)",HSC adipogenesis (primary HSCs [2]; exposure of quiescent HSCs),morphology of treated primary HSCs (primary HSCs [3]),HSC contraction (primary rat HSCs [4]),"portal pressure (PP) after SR6452 (cirrhotic rats; mean, p=0.017) [mmHg]","hepatic-portal vascular resistance after SR6452 (cirrhotic rats; mean, p=0.043) [mmHg/min/100 g/ml]","splanchnic vascular resistance after SR6452 (cirrhotic rats; mean, p=0.048) [mmHg/min/100 g/ml]",reduction in hepatic-portal vascular resistance (cirrhotic rats; vs baseline) [%],reduction in splanchnic vascular resistance (cirrhotic rats; vs baseline) [%]
TGFβ,stabilized,increased,–,–,–,–,–,–,–,–,–,–,–,–,–
CC(C)(C)OC(=O)CN(Cc1ccc(Cl)cc1)Cc1ccc([N+](=O)[O-])s1 [SR6452],–,–,repressive effects,significantly down-regulated,up-regulated,suppressive effect,increased,promoted,slightly rounded/folded cytoplasm with disoriented actin fibers,impeded,19.1,8.8,27.5,36,13.5
